Here are results for 17 molecules from publication PMC6273037, “Synthesis, Structure and Cytotoxic Activity of Mono- and Dialkoxy Derivatives of 5,8-Quinolinedione” (Molecules, 2016).

A word on the melting point: it is the temperature of the solid-liquid transition.

Where two headings read alike, the source gives them in different places.

For data set [1], the system named is C-32 (human melanoma). Briefly: WST-1 antiproliferative assay, melanoma C-32. The format is cell-based. Conditions: WST-1 test, incubation time 72 h, read-out: Human Cell Line/IC50 ± SD C-32. The procedure:
(§1) As a reference, the cytotoxic agent cisplatin was applied.
(§2) The synthesized compounds were tested against tumor cells SNB-19 (human glioblastoma, DSMZ-German Collection of Microorganisms and Cell Cultures, Braunschweig, Germany), MDA-MB-231 (human adenocarcinoma, breast cancer; ATCC), C-32 (human melanoma; ATCC) and nontumor cells HFF-1 (normal human fibroblasts derived from foreskin, ATCC). The cultured cells were kept at 37 °C and in 5% CO2. The cells were seeded (10^3 cells/well/[…] DMEM supplemented with FBS (Fetal Bovine Serum, Lonza) to a final concentration of 10% and streptomycin 10 mg/mL and penicillin 1000 IU/mL (Sigma), using 96-well plates (Corning).
(§3) The antiproliferative effect of the synthesized compounds was determined using the Cell Proliferation Reagent WST-1 assay (Roche Diagnostics, Mannheim, Germany). […] After an exposure to the tested compounds at concentration varying in the range 0.4–400 nM/mL, the cell viability was quantified by a cell proliferation assay. […] The cytotoxic activity of the tested compound was compared to the cisplatin (positive control). The experiments were repeated in triplicate for each concentration of the tested compound. The initial concentration of the tested compounds was 1 mg/mL DMSO. […] Calculations of the IC50 values were performed using the GraphPad Prism 6 (GraphPad Software, San Diego, CA, USA).

The test system of data set [2] is SNB-19 (human glioblastoma). Briefly: WST-1 antiproliferative assay, glioblastoma SNB-19. The format is cell-based. Conditions: WST-1 test, incubation time 72 h, read-out: Human Cell Line/IC50 ± SD SNB-19. On the procedure: as §1, §2, §3
Data set [3] relates to MDA-MB-231 (human adenocarcinoma, breast cancer). In words: WST-1 antiproliferative assay, breast cancer MDA-MB-231. Type of data set: cell-based. The settings on record: for IC50: WST-1 test, incubation time 72 h, read-out: Human Cell Line/IC50 ± SD MDA-MB-231; for selectivity index (SI): breast cancer (MDA-MB-231) cell line. The procedure: as §1, §2, §3
(In general: Tetrazolium dyes change colour on reduction, which living cells bring about.)

In data set [4] the test system is HFF-1 (normal human fibroblasts). In words: WST-1 antiproliferative assay, normal fibroblasts HFF-1. The settings on record: WST-1 test, incubation time 72 h, Neg = Negative in the concentration used; for IC50: read-out: Human Cell Line/IC50 ± SD HFF-1. The format is cell-based. The procedure:
as §1, §2, §3

Take `CCCOC1=C(Cl)C(=O)c2cccnc2C1=O` [Compound 4, 6-Chloro-7-propoxy-5,8-quinolinedione]: the melting point lay within 121 to 122 °C. Further, the IC50 in data set [1] (Homo sapiens) amounted to 0.2 ± 0.01 µM. The IC50 in data set [2] (Homo sapiens, SNB-19) was 0.36 ± 0.03 µM. Further, the IC50 in data set [3] (Homo sapiens, MDA-MB-231) amounted to 22.4 ± 2.7 µM. Besides, the “Human Cell Line/IC50 ± SD HFF-1” value in data set [4] is listed as “Neg”.

The molecule `C=CCOC1=C(Cl)C(=O)c2cccnc2C1=O` [Compound 5, 6-Chloro-7-(2-propenoxy)-5,8-quinolinedione] displayed a melting point of 89 to 90 °C. The IC50 in data set [1] (Homo sapiens) was determined as 0.28 ± 0.09 µM. For the same molecule, the IC50 in data set [2] (Homo sapiens, SNB-19) worked out at 0.3 ± 0.01 µM. Also, in data set [3] (Homo sapiens, MDA-MB-231), the IC50 turned out to be 17.2 ± 2.8 µM. Moreover, in data set [4], the “Human Cell Line/IC50 ± SD HFF-1” value is “Neg”.

For `CCOC1=C(Cl)C(=O)c2cccnc2C1=O` [Compound 3, 6-Chloro-7-ethoxy-5,8-quinolinedione], the melting point lay in the range of 112 to 114 °C. For the same molecule, the IC50 in data set [1] (Homo sapiens) came out at 30.7 ± 1.1 µM. The IC50 in data set [2] (Homo sapiens, SNB-19) was determined as 10.3 ± 2.4 µM. For the same molecule, the IC50 in data set [3] (Homo sapiens, MDA-MB-231) worked out at 24 ± 2.8 µM. Further, the IC50 in data set [4] (Homo sapiens, HFF-1) came to 1.3 ± 0.5 µM.

In turn, `O=C1C(OCC(F)(F)F)=C(OCC(F)(F)F)C(=O)c2ncccc21` [Compound 15, 6,7-di(2,2,2-Trifluoroethoxy)-5,8-quinolinedione] came in with a melting point of 110 to 111 °C. The IC50 in data set [1] (Homo sapiens) is 10.9 ± 1.3 µM. In data set [2] (Homo sapiens, SNB-19), the IC50 is 14.9 ± 0.7 µM. Besides, in data set [3] (Homo sapiens, MDA-MB-231), the IC50 was 2.7 ± 0.1 µM. Moreover, in data set [3], the “selectivity index (SI)” value was determined as 4.6. In addition, the IC50 in data set [4] (Homo sapiens, HFF-1) is 12.4 ± 1.2 µM.

With `O=C1C(OCCCl)=C(OCCCl)C(=O)c2ncccc21` [Compound 14, 6,7-di(2-Chloroethoxy)-5,8-quinolinedione], the melting point was 189 to 191 °C. Besides, the IC50 in data set [1] (Homo sapiens) was found to be 12.1 ± 0.2 µM. Besides, the IC50 in data set [2] (Homo sapiens, SNB-19) was found to be 3.5 ± 0.3 µM. Further, the IC50 in data set [3] (Homo sapiens, MDA-MB-231) came to 10.9 ± 1.4 µM. In addition, the IC50 in data set [4] (Homo sapiens, HFF-1) was determined as 1.9 ± 0.2 µM.

With `COC1=C(OC)C(=O)c2ncccc2C1=O` [Compound 10, 6,7-Dimethoxy-5,8-quinolinedione], the melting point fell in the range of 132 to 133 °C.

In turn, `O=C1C(Cl)=C(OCCCl)C(=O)c2ncccc21` [Compound 6, 6-Chloro-7-(2-chloroethoxy)-5,8-quinolinedione] yielded a melting point of 114 to 116 °C. For the same molecule, the IC50 in data set [1] (Homo sapiens) was 22.8 ± 2.5 µM. In addition, in data set [2] (Homo sapiens, SNB-19), the IC50 came to 18.3 ± 1.4 µM. Besides, in data set [3] (Homo sapiens, MDA-MB-231), the IC50 amounted to 17 ± 3 µM. Moreover, in data set [4] (Homo sapiens, HFF-1), the IC50 is 15.8 ± 1.2 µM.

The molecule `N#CCCOC1=C(OCCC#N)C(=O)c2ncccc2C1=O` [Compound 16, 6,7-di(2-Cyanoethoxy)-5,8-quinolinedione] displayed a melting point of 45 to 47 °C. Also, the IC50 in data set [1] (Homo sapiens) came out at 134 ± 10.7 µM. For the same molecule, the IC50 in data set [2] (Homo sapiens, SNB-19) turned out to be 204 ± 14.3 µM. For the same molecule, in data set [3] (Homo sapiens, MDA-MB-231), the IC50 came out at 111 ± 3.7 µM. Further, the IC50 in data set [4] (Homo sapiens, HFF-1) was found to be 18.2 ± 2.6 µM.

For `N.N.[Cl][Pt][Cl]` [cisplatin, reference compound], the IC50 in data set [1] turned out to be 16.4 ± 1.2 µM; in data set [2], 18.9 ± 0.4 µM; in data set [3], 25.5 ± 0.2 µM; in data set [4], 9.1 ± 1.8 µM.

The molecule `CCCOC1=C(OCCC)C(=O)c2ncccc2C1=O` [Compound 12, 6,7-Dipropoxy-5,8-quinolinedione] returned a melting point of 133 to 135 °C. In addition, the IC50 in data set [1] (Homo sapiens) was 1.1 ± 0.1 µM. Besides, the IC50 in data set [2] (Homo sapiens, SNB-19) amounted to 0.7 ± 0.02 µM. The IC50 in data set [3] (Homo sapiens, MDA-MB-231) amounted to 3 ± 0.3 µM. Also, the “Human Cell Line/IC50 ± SD HFF-1” value in data set [4] is on record as “Neg”.

As for `CCOC1=C(OCC)C(=O)c2ncccc2C1=O` [Compound 11, 6,7-Diethoxy-5,8-quinolinedione], the melting point lay in the range of 69 to 70 °C. For the same molecule, the IC50 in data set [1] (Homo sapiens) stood at 17.6 ± 1.6 µM. Also, the IC50 in data set [2] (Homo sapiens, SNB-19) was 2.1 ± 0.1 µM. In addition, the IC50 in data set [3] (Homo sapiens, MDA-MB-231) came out at 18.6 ± 2 µM. In addition, in data set [4], the “Human Cell Line/IC50 ± SD HFF-1” value is “Neg”.

In turn, `O=C1C(Cl)=C(OC2CCCCC2)C(=O)c2ncccc21` [Compound 8, 6-Chloro-7-cyclohexyloxy-5,8-quinolinedione] yielded a melting point of 123 to 124 °C. In addition, in data set [1] (Homo sapiens), the IC50 is 1.4 ± 0.1 µM. Besides, the IC50 in data set [2] (Homo sapiens, SNB-19) came out at 1.8 ± 0.1 µM. The IC50 in data set [3] (Homo sapiens, MDA-MB-231) amounted to 3.5 ± 0.3 µM. Moreover, the IC50 in data set [4] (Homo sapiens, HFF-1) came to 13.9 ± 3 µM.

In the case of “6-Chloro-7-(1-methylbenzyloxy)-5,8-quinolinedione [Compound 9]”, the IC50 in data set [1] came out at 0.81 ± 0.01 µM; in data set [2] it was 2.3 ± 0.5 µM; in data set [3] it was 271 ± 9.8 µM; in data set [4], 2 ± 0.3 µM.

The molecule `COC1=C(Cl)C(=O)c2cccnc2C1=O` [Compound 2, 6-Chloro-7-methoxy-5,8-quinolinedione] returned a melting point of 161 to 163 °C. Also, the IC50 in data set [1] (Homo sapiens) was 19.2 ± 2.1 µM. The IC50 in data set [2] (Homo sapiens, SNB-19) is 42.2 ± 0.1 µM. Also, the IC50 in data set [3] (Homo sapiens, MDA-MB-231) turned out to be 1.5 ± 0.2 µM. For the same molecule, the “selectivity index (SI)” value in data set [3] amounted to 18.4. For the same molecule, the IC50 in data set [4] (Homo sapiens, HFF-1) worked out at 27.6 ± 2.1 µM.

Consider `O=C1C(OC2CCCCC2)=C(OC2CCCCC2)C(=O)c2ncccc21` [Compound 17, 6,7-Dicyclohexloxy-5,8-quinolinedione], for which the IC50 amounted to 1.4 ± 0.1 µM in data set [1] (Homo sapiens); 1.7 ± 0.3 µM in data set [2] (Homo sapiens, SNB-19); 13.8 ± 0.1 µM in data set [3] (Homo sapiens, MDA-MB-231). Besides, the “Human Cell Line/IC50 ± SD HFF-1” value in data set [4] was “Neg”.

In the case of `N#CCCOC1=C(Cl)C(=O)c2cccnc2C1=O` [Compound 7, 6-Chloro-7-(2-cyanoethoxy)-5,8-quinolinedione], the melting point lay in the range of 177 to 179 °C. For the same molecule, in data set [1] (Homo sapiens), the IC50 came to 119 ± 4.3 µM. Moreover, in data set [2] (Homo sapiens, SNB-19), the IC50 worked out at 58.3 ± 2.8 µM. For the same molecule, the IC50 in data set [3] (Homo sapiens, MDA-MB-231) came to 164 ± 3.9 µM. The IC50 in data set [4] (Homo sapiens, HFF-1) is 2.5 ± 0.4 µM.

Molecule `C=CCOC1=C(OCC=C)C(=O)c2ncccc2C1=O` [Compound 13, 6,7-di(2-Propenyloxy)-5,8-quinolinedione] showed a melting point of 135 to 136 °C. Moreover, the IC50 in data set [1] (Homo sapiens) worked out at 1.5 ± 0.01 µM. Further, the IC50 in data set [2] (Homo sapiens, SNB-19) was 0.2 ± 0.01 µM. Also, in data set [3] (Homo sapiens, MDA-MB-231), the IC50 is 12.6 ± 2.7 µM. The “Human Cell Line/IC50 ± SD HFF-1” value in data set [4] was “Neg”.
